Data from US7442833B2, “Triphenylethylene compounds as selective estrogen receptor modulators” (SmithKline Beecham Corporation, priority 2003, dated 2008).
≈ marks a conversion by molar mass, not a printed value. Where “and” joins values, the source holds several entries; their conditions need not be identical. Equal entries are not always repeated. Structures can show the parent of a compound that is named as a salt.

Key:
[1] = Equilibrium solubility in fasted state simulated intestinal fluid (SIF); format: physicochemical; conditions: fassif, thermodynamic from solid, pH = 6.8
From the text: Traditionally, prodrugs have often been used to increase the bioavailability of a drug via improvement of prodrug solubility by attaching a water-soluble moiety (the “progroup”) to a poorly water soluble parent drug (D. Fleisher, Adv. Drug Del. Rev. (1996) 19, 115-130, incorporated herein by reference).

[2] = Rat oral pharmacokinetics: bioavailability of compound 1; format: in vivo, female CD (Charles River Sprague Dawley) rats; conditions: for Bioavailability of 1 in Rat (% F): Table I; for Bioavailability of 1 in Rat: Table II
Procedure: In order to study the pharmacokinetic behavior of the prodrugs of this invention, a single oral dose of a series of prodrugs as well as compound 1 was administered to female CD (Charles River Sprague Dawley) rats. Rats received each compound by oral gavage at a dose of 10 mg/kg. […]

[3] = molecular target: estrogen receptor subtype beta (Homo sapiens, UniProt Q92731); conditions: relative to estradiol; reported by Weatherman, Chem. and Biol. (2001) 8, 427-436; cited from earlier work
[4] = molecular target: estrogen receptor subtype alpha (Homo sapiens, UniProt P03372); conditions: relative to estradiol; reported by Weatherman, Chem. and Biol. (2001) 8, 427-436; cited from earlier work
[5] = single oral gavage 10 mg/kg, suspension in aqueous 0.5% HPMC and 0.1% polysorbate 80 (Tween 80)
[6] = oral, suspension in aqueous 0.5% HPMC and 0.1% polysorbate 80 (Tween 80)

Chain of estrogen receptor subtype beta (Q92731 whole entry): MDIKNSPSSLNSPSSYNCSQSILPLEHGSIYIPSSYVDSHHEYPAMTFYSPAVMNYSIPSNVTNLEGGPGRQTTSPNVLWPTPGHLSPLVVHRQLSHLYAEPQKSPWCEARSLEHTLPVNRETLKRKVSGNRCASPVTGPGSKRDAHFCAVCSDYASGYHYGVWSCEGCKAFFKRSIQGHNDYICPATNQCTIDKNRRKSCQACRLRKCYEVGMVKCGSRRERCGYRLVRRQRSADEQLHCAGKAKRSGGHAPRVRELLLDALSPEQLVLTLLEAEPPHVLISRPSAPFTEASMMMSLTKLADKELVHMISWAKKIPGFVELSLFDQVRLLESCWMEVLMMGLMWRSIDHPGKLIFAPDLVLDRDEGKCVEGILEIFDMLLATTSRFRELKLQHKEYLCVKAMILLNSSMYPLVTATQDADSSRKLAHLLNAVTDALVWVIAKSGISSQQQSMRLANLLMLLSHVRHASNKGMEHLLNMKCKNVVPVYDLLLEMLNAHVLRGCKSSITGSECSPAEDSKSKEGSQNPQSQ
Chain of estrogen receptor subtype alpha (P03372 whole entry): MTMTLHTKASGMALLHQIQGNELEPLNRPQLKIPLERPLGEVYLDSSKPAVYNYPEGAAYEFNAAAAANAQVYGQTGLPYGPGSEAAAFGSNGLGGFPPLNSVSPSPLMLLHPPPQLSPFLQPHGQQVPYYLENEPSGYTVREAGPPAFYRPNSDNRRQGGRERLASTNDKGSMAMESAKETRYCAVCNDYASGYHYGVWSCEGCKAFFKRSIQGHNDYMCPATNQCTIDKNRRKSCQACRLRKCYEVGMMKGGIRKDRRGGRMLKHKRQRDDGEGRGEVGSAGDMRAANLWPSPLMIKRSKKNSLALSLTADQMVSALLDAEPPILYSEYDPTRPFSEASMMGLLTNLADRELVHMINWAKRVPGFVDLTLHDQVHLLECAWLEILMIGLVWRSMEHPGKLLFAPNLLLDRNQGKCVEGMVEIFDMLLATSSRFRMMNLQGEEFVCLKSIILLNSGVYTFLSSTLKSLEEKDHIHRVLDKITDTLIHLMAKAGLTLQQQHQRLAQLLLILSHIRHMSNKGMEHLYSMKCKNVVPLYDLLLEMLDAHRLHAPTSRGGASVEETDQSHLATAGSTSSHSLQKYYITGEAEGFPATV

| Structure (SMILES) | Bioavailability of 1 in Rat (% F) [2, 5] | melting point | further results |
| --- | --- | --- | --- |
| CCCC(=O)Oc1ccc(/C(=C(/CC)c2ccccc2)c2ccc(/C=C/C(=O)O)cc2)cc1 [Compound 21, (2E)-3-(4-{(1Z)-1-[4-(butyryloxy)phenyl]-2-phenylbut-1-enyl}phenyl)prop-2-enoic acid] | 18.2 % F |  | solubility thermodynamic [1]: 21 µg/mL (≈ 47.7 µM); Bioavailability of 1 in Rat [2, 6]: 18.2 % F |
| CC/C(=C(\c1ccc(/C=C/C(=O)O)cc1)c1ccc(OC(=O)CN(C)C)cc1)c1ccccc1 (as salt: salt) [Compound 23, (2E)-3-[4-((1Z)-1-{4-[(N,N-dimethylglycyl)oxy]phenyl}-2-phenylbut-1-enyl)phenyl]prop-2-enoic acid] |  | 206 to 208 °C |  |
| CC/C(=C(\c1ccc(/C=C/C(=O)O)cc1)c1ccc(OC(=O)CN2CCOCC2)cc1)c1ccccc1 [Compound 31, (2E)-3-[4-((1Z)-1-{4-[(morpholin-4-ylacetyl)oxy]phenyl}-2-phenylbut-1-enyl)phenyl]prop-2-enoic acid] | 21.3 % F |  |  |
| CCC(=O)Oc1ccc(/C(=C(/CC)c2ccccc2)c2ccc(/C=C/C(=O)O)cc2)cc1 [Compound 7, (2E)-3-(4-{(1Z)-2-phenyl-1-[4-(propionyloxy)phenyl]but-1-enyl}phenyl)prop-2-enoic acid] | 86.6 % F | 155 to 157 °C and 158 to 160 °C | solubility thermodynamic [1]: 61 µg/mL (≈ 143 µM); Bioavailability of 1 in Rat [2, 6]: 86.6 % F |
| CC/C(=C(\c1ccc(/C=C/C(=O)O)cc1)c1ccc(OC(=O)CCC(F)(F)F)cc1)c1ccccc1 (as salt: salt) [Compound 27, (2E)-3-[4-((1Z)-2-phenyl-1-{4-[(4,4,4-trifluorobutanoyl)oxy]phenyl}but-1-enyl)phenyl]prop-2-enoic acid] |  | 162 to 163 °C |  |
| CC/C(=C(\c1ccc(/C=C/C(=O)O)cc1)c1ccc(OC(=O)C2CCCCC2)cc1)c1ccccc1 [Compound 29, (2E)-3-[4-((1Z)-1-{4-[(cyclohexylcarbonyl)oxy]phenyl}-2-phenylbut-1-enyl)phenyl]prop-2-enoic acid] | 3.3 % F |  |  |
| CC/C(=C(\c1ccc(/C=C/C(=O)O)cc1)c1ccc(OC(=O)c2ccccc2)cc1)c1ccccc1 [Compound 18, (2E)-3-(4-{(1Z)-1-[4-(benzoyloxy)phenyl]-2-phenylbut-1-enyl}phenyl)prop-2-enoic acid] | 12.3 % F |  |  |
| CCOC(=O)Oc1ccc(/C(=C(/CC)c2ccccc2)c2ccc(/C=C/C(=O)O)cc2)cc1 [Compound 37, (2E)-3-[4-((1Z)-1-{4-[(Ethoxycarbonyl)oxy]phenyl}-2-phenyl-1-butenyl)phenyl]-2-propenoic acid] | 43.2 % F | 135 to 136 °C |  |
| CC/C(=C(\c1ccc(/C=C/C(=O)O)cc1)c1ccc(OC(C)=O)cc1)c1ccccc1 [Compound 20, (2E)-3-(4-{(1Z)-1-[4-(acetyloxy)phenyl]-2-phenylbut-1-enyl}phenyl)prop-2-enoic acid] | 13.5 % F |  | solubility thermodynamic [1]: 129 µg/mL (≈ 313 µM); Bioavailability of 1 in Rat [2, 6]: 13.5 % F |
| CC/C(=C(\c1ccc(/C=C/C(=O)O)cc1)c1ccc(OC(=O)CCC(F)(F)F)cc1)c1ccccc1 [Compound 27, (2E)-3-[4-((1Z)-2-phenyl-1-{4-[(4,4,4-trifluorobutanoyl)oxy]phenyl}but-1-enyl)phenyl]prop-2-enoic acid] | 28.9 % F |  |  |
| CC/C(=C(\c1ccc(/C=C/C(=O)O)cc1)c1ccc(OC(=O)CN2CCN(C)CC2)cc1)c1ccccc1 [Compound 34, (2E)-3-{4-[(1Z)-1-(4-{[(4-methylpiperazin-1-yl)acetyl]oxy}phenyl)-2-phenylbut-1-enyl]phenyl}prop-2-enoic acid] | 13.4 % F |  |  |
| CC/C(=C(\c1ccc(/C=C/C(=O)O)cc1)c1ccc(OP(=O)(O)O)cc1)c1ccccc1 [Compound 35, (2E)-3-(4-{(1Z)-2-Phenyl-1-[4-(phosphonooxy)phenyl]-1-butenyl}phenyl)-2-propenoic acid] | 37.0 % F | 181 to 183 °C | solubility thermodynamic [1]: > 1000 µg/mL; Bioavailability of 1 in Rat [2, 6]: 37.0 % F |
| CC/C(=C(\c1ccc(/C=C/C(=O)O)cc1)c1ccc(OC(=O)CN2CCCCC2)cc1)c1ccccc1 [Compound 33, (2E)-3-[4-((1Z)-2-phenyl-1-{4-[(piperidin-1-ylacetyl)oxy]phenyl}but-1-enyl)phenyl]prop-2-enoic acid] | 13.9 % F |  |  |
| CC/C(=C(\c1ccc(/C=C/C(=O)O)cc1)c1ccc(OC(=O)OC)cc1)c1ccccc1 [Compound 40, (2E)-3-[4-((1Z)-1-{4-[(Methoxycarbonyl)oxy]phenyl}-2-phenyl-1-butenyl)phenyl]-2-propenoic acid] | 21.9 % F | 140 to 142 °C |  |
| CC/C(=C(\c1ccc(/C=C/C(=O)O)cc1)c1ccc(OC(=O)c2cccs2)cc1)c1ccccc1 [Compound 25, (2E)-3-[4-((1Z)-2-phenyl-1-{4-[(thien-2-ylcarbonyl)oxy]phenyl}but-1-enyl)phenyl]prop-2-enoic acid] | 50.9 % F |  |  |
| CC/C(=C(/c1ccc(O)cc1)c1ccc(/C=C/C(=O)O)cc1)c1ccccc1 [Compound 1, (2E)-3-{4-[(1Z)-1-(4-Hydroxyphenyl)-2-phenylbut-1-enyl]phenyl}prop-2-enoic acid] | 5.7 % F |  | binding affinity to estrogen receptor subtype beta, % that of estradiol [3]: 1%; solubility thermodynamic [1]: 23 µg/mL (≈ 62.1 µM); Bioavailability of 1 in Rat (% F) ([2]; oral, solution in aqueous 20% hydroxypropoylcyclodextrin): 29.0 % F; Bioavailability of 1 in Rat [2, 6]: 5.7 % F; binding affinity to estrogen receptor subtype alpha, % that of estradiol [4]: 2% |
| CC/C(=C(\c1ccc(/C=C/C(=O)O)cc1)c1ccc(OC(=O)C(C)(C)C)cc1)c1ccccc1 [Compound 28, (2E)-3-[4-((1Z)-1-{4-[(2,2-dimethylpropanoyl)oxy]phenyl}-2-phenylbut-1-enyl)phenyl]prop-2-enoic acid] | 3.5 % F |  |  |
| CC/C(=C(\c1ccc(/C=C/C(=O)O)cc1)c1ccc(OC(=O)CN(C)C)cc1)c1ccccc1 [Compound 23, (2E)-3-[4-((1Z)-1-{4-[(N,N-dimethylglycyl)oxy]phenyl}-2-phenylbut-1-enyl)phenyl]prop-2-enoic acid] | 38.3 % F |  | solubility thermodynamic [1]: 15 µg/mL (≈ 32.9 µM); Bioavailability of 1 in Rat [2, 6]: 38.3 % F |
| CC/C(=C(\c1ccc(/C=C/C(=O)O)cc1)c1ccc(OC(=O)c2ccno2)cc1)c1ccccc1 [Compound 24, (2E)-3-[4-((1Z)-1-{4-[(5-Isoxazolylcarbonyl)oxy]phenyl}-2-phenyl-1-butenyl)phenyl]-2-propenoic acid] | 43.2 % F | 141 to 142 °C |  |
| CC/C(=C(\c1ccc(/C=C/C(=O)O)cc1)c1ccc(OC(=O)CCOC)cc1)c1ccccc1 [Compound 26] | 52.4 % F | 190 to 191 °C |  |
| CC/C(=C(\c1ccc(/C=C/C(=O)O)cc1)c1ccc(OC(=O)c2cccs2)cc1)c1ccccc1 (as salt: salt) [Compound 25, (2E)-3-[4-((1Z)-2-phenyl-1-{4-[(thien-2-ylcarbonyl)oxy]phenyl}but-1-enyl)phenyl]prop-2-enoic acid] |  | 175 to 176 °C |  |
| CC/C(=C(\c1ccc(/C=C/C(=O)O)cc1)c1ccc(OC(=O)c2ccco2)cc1)c1ccccc1 [Compound 22, (2E)-3-(4-{(1Z)-1-[4-(2-Furoyloxy)phenyl]-2-phenyl-1-butenyl}phenyl)-2-propenoic acid] | 16.9 % F | 170 to 172 °C |  |
